Like-named read-outs stand apart in the source and are kept apart here.
Legend:
[1] = tested on: mania (increased motor activity) produced in mice by morphine; test: Morphine antagonist test: inhibition of the characteristic mania (increased motor activity) produced in mice by morphine; assay type: in vivo; settings: for % Inhibition (percent of pairs in which the mania is inhibited): subcutaneous, concurrently with 25 mg/kg morphine sulfate, 10 pairs of mice
Description: A sample of 25 mg/kg of body weight of morphine sulfate and the compound of the invention to be tested are concurrently administered subcutaneously to 10 pairs of mice. The mice are then observed for inhibition of the characteristic mania (increased motor activity) normally produced in mice by morphine. Results are outlined in Table II and expressed as percent of pairs in which the mania is inhibited at a given dose level.

[2] = tested on: 2-phenyl-1,4-quinone induced writhing; test: 2-phenyl-1,4-quinone induced writhing assay in mice (analgesia); assay type: in vivo; settings: Mus musculus, sc, read-out: ED50 (inhibition of writhing)
From the text: Compounds of the invention are useful as analgesic agents due to their ability to alleviate pain in mammals. […] Exptl. Biol. Med., 95, 729 (1957)].

[3] = 0.25 h, mice, subcutaneous, drug administration time 15 minutes
[4] = 0.5 h, mice, subcutaneous, drug administration time 30 minutes

Compound	ED50 [2, 3] [mg/kg]	ED50 [2, 4] [mg/kg]	% Inhibition (percent of pairs in which the mania is inhibited) ([1]; dose 50 mg/kg) [%]	also measured
Oc1cccc(C23CCC(C2)N(Cc2ccco2)CC3)c1 (stereo not shown) [2-(2-furylmethyl)-5-(3-hydroxyphenyl)-2-azabicyclo[3.2.1]octane.HBr]	22	–	–	% Inhibition (percent of pairs in which the mania is inhibited) ([1]; dose 25 mg/kg): 100%
O=C(CCCN1CCC2(c3cccc(O)c3)CCC1C2)c1ccc(F)cc1 (stereo not shown) [2-[3-(4-fluorobenzoyl)propyl]-5-(3-hydroxyphenyl)-2-azabicyclo[3.2.1]octane.HBr]	–	–	–	% Inhibition (percent of pairs in which the mania is inhibited) ([1]; dose 10 mg/kg): 100%
O=C(CCCN1CCC2(c3cccc(O)c3)CCC1C2)c1ccc(F)cc1 (stereo not shown) [2-[3-(4-fluorobenzoyl)propyl]-5-(3-hydroxyphenyl)-2-azabicyclo[3.2.1]octane]	–	0.35	–	–
COc1cccc(C23CCC(C2)N(CCCC(=O)c2ccc(F)cc2)CC3)c1 (stereo not shown) [2-[3-(4-fluorobenzoyl)propyl]-5-(3-methoxyphenyl)-2-azabicyclo[3.2.1]octane.HBr]	–	–	–	% Inhibition (percent of pairs in which the mania is inhibited) ([1]; dose 10 mg/kg): 100%; ED50 ([2]; 1 h, mice, subcutaneous, drug administration time 60 minutes): 0.7 mg/kg
Oc1cccc(C23CCC(C2)N(CC2CC2)CC3)c1 (stereo not shown) [2-cyclopropylmethyl-5-(3-hydroxyphenyl)-2-azabicyclo[3.2.1]octane.HBr]	–	6	–	% Inhibition (percent of pairs in which the mania is inhibited) ([1]; dose 25 mg/kg): 100%
CCCCCN1CCC2(c3cccc(O)c3)CCC1C2 (stereo not shown) [2-n-amyl-5-(3-hydroxyphenyl)-2-azabicyclo[3.2.1]octane.HBr]	–	11	–	% Inhibition (percent of pairs in which the mania is inhibited) ([1]; dose 3 mg/kg): 50%; % Inhibition (percent of pairs in which the mania is inhibited) ([1]; dose 25 mg/kg): 100%
CCCCCN1CCC2(c3cccc(OC)c3)CCC1C2 (stereo not shown) [2-n-amyl-5-(3-methoxyphenyl)-2-azabicyclo[3.2.1]octane.HBr]	–	5	–	% Inhibition (percent of pairs in which the mania is inhibited) ([1]; dose 30 mg/kg): 100%
CCCCN1CCC2(c3cccc(O)c3)CCC1C2 (stereo not shown) [2-n-butyl-5-(3-hydroxyphenyl)-2-azabicyclo[3.2.1]octane.HBr]	9	–	–	% Inhibition (percent of pairs in which the mania is inhibited) ([1]; dose 25 mg/kg): 100%
CCCCN1CCC2(c3cccc(OC)c3)CCC1C2 (stereo not shown) [2-n-butyl-5-(3-methoxyphenyl)-2-azabicyclo[3.2.1]octane.HBr]	–	4.6	–	% Inhibition (percent of pairs in which the mania is inhibited) ([1]; dose 25 mg/kg): 100%
CC(=O)Oc1cccc(C23CCC(C2)N(C)CC3)c1 (stereo not shown) [5-(3-acetoxyphenyl)-2-methyl-2-azabicyclo[3.2.1]octane.HBr]	–	–	100	–
CC(=O)Oc1cccc(C23CCC(C2)N(CCc2ccccc2)CC3)c1 (stereo not shown) [5-(3-acetoxyphenyl)-2-phenethyl-2-azabicyclo[3.2.1]octane.HBr]	–	6.1	–	% Inhibition (percent of pairs in which the mania is inhibited) ([1]; dose 10 mg/kg): 70%
CN1CCC2(c3cccc(O)c3)CCC1C2 (stereo not shown) [5-(3-hydroxyphenyl)-2-methyl-2-azabicyclo[3.2.1]octane.HBr]	–	9.5	80	–
CCCN1CCC2(c3cccc(O)c3)CCC1C2 (stereo not shown) [5-(3-hydroxyphenyl)-2-n-propyl-2-azabicyclo[3.2.1]octane.HBr]	8.9	–	100	–
Oc1cccc(C23CCC(C2)N(CCc2ccccc2)CC3)c1 (stereo not shown) [5-(3-hydroxyphenyl)-2-phenethyl-2-azabicyclo[3.2.1]octane.HBr]	0.7	–	100	% Inhibition (percent of pairs in which the mania is inhibited) ([1]; dose 1 mg/kg): 50%
COc1cccc(C23CCC(C2)N(C)CC3)c1 (stereo not shown) [5-(3-methoxyphenyl)-2-methyl-2-azabicyclo[3.2.1]octane.HBr]	–	7.9	50	–
CCCN1CCC2(c3cccc(OC)c3)CCC1C2 (stereo not shown) [5-(3-methoxyphenyl)-2-n-propyl-2-azabicyclo[3.2.1]octane.HBr]	7.4	–	100	% Inhibition (percent of pairs in which the mania is inhibited) ([1]; dose 10 mg/kg): 50%
COc1cccc(C23CCC(C2)N(CCc2ccccc2)CC3)c1 (stereo not shown) [5-(3-methoxyphenyl)-2-phenethyl-2-azabicyclo[3.2.1]octane.HBr]	–	5.9	–	–
CN1CC[C@]23c4c5ccc(O)c4O[C@H]2[C@@H](O)C=C[C@H]3[C@H]1C5 [morphine, reference compound]	–	–	–	ED50 ([2]; 0.5 h): 0.47 mg/kg
CC(C)=CCN1CCC2(C)c3cc(O)ccc3CC1C2C (stereo not shown) [pentazocine, reference compound]	1.5	4.8	–	ED50 ([1]; Mus musculus, sc, mice, concurrently with morphine sulfate, for comparison, read-out: dose exhibiting a 50% inhibition (of morphine mania)): > 50 mg/kg

Reference: patent publication US4079141A, “Azabicycloalkanes” (priority 1976, dated 1978)
